Measurements published in patent publication US20160030407A1, “Method of Treating Inflammatory Lung Disease” (priority 2010, published 2016).
In brackets after ≈: the same amount, converted by molar mass.

Experiments:
nAChR α7 [1] = target: T1, nAChR α7 (Homo sapiens, UniProt P36544); assay: nAChR α7 channel positive allosteric modulator assay (FLIPR); format: cell-based; conditions: with 30 μM Ach, 100% = 30 μM Ach+10 μM PNU-120596, 0% = 30 μM Ach
T1 construct: host or cells: CHO cells coexpressing RIC-3
T1 sequence (P36544 23-502): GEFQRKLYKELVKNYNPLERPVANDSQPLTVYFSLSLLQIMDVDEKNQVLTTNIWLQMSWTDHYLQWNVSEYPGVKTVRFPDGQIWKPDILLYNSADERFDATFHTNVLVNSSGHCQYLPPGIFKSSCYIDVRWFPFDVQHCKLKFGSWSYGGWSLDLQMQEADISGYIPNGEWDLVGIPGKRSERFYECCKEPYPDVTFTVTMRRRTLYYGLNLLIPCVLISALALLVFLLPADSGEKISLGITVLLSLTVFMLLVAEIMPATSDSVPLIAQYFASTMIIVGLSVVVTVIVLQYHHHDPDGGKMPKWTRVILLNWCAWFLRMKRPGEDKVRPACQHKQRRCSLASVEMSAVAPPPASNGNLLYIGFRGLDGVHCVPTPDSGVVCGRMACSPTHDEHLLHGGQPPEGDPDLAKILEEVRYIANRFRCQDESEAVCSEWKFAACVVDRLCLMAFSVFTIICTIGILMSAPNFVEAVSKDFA
Description: (§1) Briefly, cells were incubated with […] dye for 30 min at 37° C.

nAChR α7 [2] = target: T1, nAChR α7; assay: nAChR α7 channel antagonist assay (FLIPR); format: cell-based; conditions: with 300 μM Ach+10 μM PNU-120596, control antagonist 10 μM MLA
Description: as §1

nAChR α3/β4 = nAChR α3/β4 (Homo sapiens, UniProt P30926+P32297); assay: nAChR α3/β4 channel agonist assay (FLIPR); format: cell-based; conditions: test conc 1 μM; 100% = 30 μM Ach, 0% = HBPS
Chain of nAChR α3/β4 (P32297 32-505): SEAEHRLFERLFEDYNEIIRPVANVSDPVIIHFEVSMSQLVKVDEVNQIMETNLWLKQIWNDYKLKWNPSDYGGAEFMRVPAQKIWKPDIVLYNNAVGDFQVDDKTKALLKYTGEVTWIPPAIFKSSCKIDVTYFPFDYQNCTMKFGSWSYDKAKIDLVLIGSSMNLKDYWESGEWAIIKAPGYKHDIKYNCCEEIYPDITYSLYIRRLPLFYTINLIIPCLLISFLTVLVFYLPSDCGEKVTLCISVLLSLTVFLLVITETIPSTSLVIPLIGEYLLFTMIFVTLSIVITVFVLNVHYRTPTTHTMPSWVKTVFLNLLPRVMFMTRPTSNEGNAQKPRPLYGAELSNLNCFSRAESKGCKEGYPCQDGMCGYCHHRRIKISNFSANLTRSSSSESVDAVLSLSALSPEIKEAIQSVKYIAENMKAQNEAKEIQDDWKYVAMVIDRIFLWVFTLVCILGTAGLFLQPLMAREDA
Chain of nAChR α3/β4 (P30926 22-498): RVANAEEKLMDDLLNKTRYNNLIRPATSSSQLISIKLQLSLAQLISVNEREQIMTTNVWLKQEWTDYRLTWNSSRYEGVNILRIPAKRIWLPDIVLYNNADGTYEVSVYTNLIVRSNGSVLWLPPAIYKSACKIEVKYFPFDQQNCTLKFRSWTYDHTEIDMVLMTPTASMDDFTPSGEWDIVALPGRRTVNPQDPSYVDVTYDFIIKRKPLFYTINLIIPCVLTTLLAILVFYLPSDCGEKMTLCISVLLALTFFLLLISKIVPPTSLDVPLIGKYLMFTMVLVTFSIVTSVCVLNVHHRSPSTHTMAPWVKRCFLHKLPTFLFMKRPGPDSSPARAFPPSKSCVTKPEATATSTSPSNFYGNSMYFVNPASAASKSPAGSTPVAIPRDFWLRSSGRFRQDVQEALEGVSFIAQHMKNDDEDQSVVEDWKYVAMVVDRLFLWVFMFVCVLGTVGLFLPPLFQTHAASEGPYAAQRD
Description: as §1

nAChR α4/β2 = target: T2, nAChR α4/β2 (Homo sapiens, UniProt P17787+P43681); assay: nAChR α4/β2 channel agonist assay (FLIPR); format: cell-based; conditions: test conc 0.3 μM; 100% = 30 μM Ach, 0% = HBPS
T2 construct: host or cells: HEK293 cells, transient
T2 sequence (P43681 29-627): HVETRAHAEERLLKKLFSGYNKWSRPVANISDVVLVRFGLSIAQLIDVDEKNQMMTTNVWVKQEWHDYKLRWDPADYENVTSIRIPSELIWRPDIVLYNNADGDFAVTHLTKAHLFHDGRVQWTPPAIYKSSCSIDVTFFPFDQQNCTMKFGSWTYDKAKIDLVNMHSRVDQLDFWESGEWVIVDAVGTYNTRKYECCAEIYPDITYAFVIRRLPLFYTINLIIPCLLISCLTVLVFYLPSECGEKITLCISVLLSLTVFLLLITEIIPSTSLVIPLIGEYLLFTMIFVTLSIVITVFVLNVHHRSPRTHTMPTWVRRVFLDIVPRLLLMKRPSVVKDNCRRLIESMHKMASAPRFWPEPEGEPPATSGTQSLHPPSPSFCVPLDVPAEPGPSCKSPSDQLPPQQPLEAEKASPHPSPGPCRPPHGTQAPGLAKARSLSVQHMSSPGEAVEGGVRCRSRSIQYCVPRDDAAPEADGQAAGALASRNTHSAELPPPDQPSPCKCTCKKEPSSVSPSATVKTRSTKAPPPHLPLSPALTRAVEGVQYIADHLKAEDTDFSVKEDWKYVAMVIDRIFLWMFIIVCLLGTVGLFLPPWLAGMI
T2 sequence (P17787 26-502): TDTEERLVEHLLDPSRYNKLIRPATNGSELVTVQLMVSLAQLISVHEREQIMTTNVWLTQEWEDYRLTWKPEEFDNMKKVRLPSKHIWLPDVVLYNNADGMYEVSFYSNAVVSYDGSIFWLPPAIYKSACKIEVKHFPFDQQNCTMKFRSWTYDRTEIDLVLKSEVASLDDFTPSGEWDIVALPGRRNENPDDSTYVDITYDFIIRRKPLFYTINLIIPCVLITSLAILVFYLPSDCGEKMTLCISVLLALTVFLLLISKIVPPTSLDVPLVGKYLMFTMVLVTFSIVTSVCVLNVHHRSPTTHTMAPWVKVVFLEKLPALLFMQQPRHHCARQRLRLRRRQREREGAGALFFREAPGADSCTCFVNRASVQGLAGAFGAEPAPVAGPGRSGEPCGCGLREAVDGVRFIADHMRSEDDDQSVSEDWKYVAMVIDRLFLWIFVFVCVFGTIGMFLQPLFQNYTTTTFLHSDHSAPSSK
Description: as §1

nAChR α7 [3] = target: T1, nAChR α7; assay: nAChR α7 channel agonist assay (FLIPR); format: cell-based; conditions: in presence of PNU-120596, 100% = 30 μM Ach+10 μM PNU-120596, 0% = HBPS
Description: as §1
Therefore, the assay of agonist activity for either Ach or for the test articles was conducted in the presence of the positive allosteric modulator.

IL-1β = assay: LPS-induced IL-1β release in whole human blood; format: cell-based; conditions: whole human blood + LPS; 16 hours (Example 13)
Description: Whole human blood was treated with LPS to stimulate inflammatory responses. […] The inflammatory molecule IL-1β was measured after 16 hours.

NFκB = NFκB luciferase assay (inhibition of TNFα-induced NFκB activity); format: cell-based, Human; conditions: Homo sapiens; 20 ng/ml TNFα; HEK293 NFκB luciferase
Description: The smokeless tobacco used in these experiments was plain long-leaf Copenhagen tobacco purchased from a local vendor. Crude extract was extracted with methanol and water and clarified by centrifugation and filtration. The alkaloid extract was prepared from sodium hydroxide and methanol extraction, organic phase separation and purification. All treatment samples were prepared as a function of weight (μg/ml), and all samples were diluted in DMSO.
Human […] kidney cells (HEK293) transfected with an NFκB luciferase reporter were challenged with TNFα for three hours, then samples were applied to the challenged cells.
The effect of S-(−)-anatabine on TNFα-induced NFκB activity in vitro was determined as described in Example 1.

[4] = Treatment of a patient with Hashimoto's thyroiditis; format: in vivo, human; conditions: one patient
Description: This example illustrates administering anatabine for treating thyroiditis. A patient had been afflicted with Hashimoto's thyroiditis for approximately 5 years. The patient's condition had advanced to a state where the treating physician recommended a thyroid lobectomy.

[5] = Physical signs after oral multi-dose administration (Example 5); format: in vivo, Sprague-Dawley rats; conditions: rat; oral gavage 0.6 or 6.0 mg/kg BW in three divided doses
Description: The physical signs of each animal were monitored following administration of the test compound.

[6] = Plasma pharmacokinetics after oral multi-dose anatabine polacrilex; format: in vivo, Sprague-Dawley rats; conditions: for t1/2, terminal / AUC0→∞: rat; for t1/2, terminal: after the final dose; for AUC0→∞: males and females combined
Description: This study consisted of two groups of 8 animals each, 4 males and 4 females.
The vehicle was sterile phosphate buffered saline (PBS) (Amresco). […] Two formulations were prepared; one for each of the two treatment groups. The test compound was formulated for each treatment group just prior to the first dose administration and constantly stirred until dosing was completed (Table 37). Four aliquots of each dose level formulation were collected and stored at −80° C.
The animals were weighed prior to dosing and received three doses p.o. of test compound at a volume of 5 mL/kg. Blood was collected via the venus plexus (retro-orbital) into tubes containing (K2) EDTA. No more than 0.5 mL was collected per time point.
Sample preparation. Plasma samples were treated with three volumes of methanol containing internal standard at 1 μM (R,S)-Antabine-2,4,5,6-d4), incubated 10 min at 4° C., and centrifuged. The amount of the test agent in the supernatant was determined by LC/MS/MS.
Analysis. Samples were analyzed by LC/MS/MS using an Agilent 6410 mass spectrometer coupled with an Agilent 1200 high pressure liquid chromatography (HPLC) and a CTC PAL chilled autosampler, all controlled by MassHunter software (Agilent). After separation on a Hydrophilic interaction liquid chromatography (HILIC) HPLC column (Sepax) using an acetonitrile-ammonium acetate/acetic acid gradient system, peaks were analyzed by mass spectrometry (MS) using ESI ionization in multiple reaction monitoring (MRM) mode. MassHunter software was used to calculate the concentration of the test compounds in samples from the peak area using the appropriate calibration curves.
Descriptive statistics were calculated for all pharmacokinetic parameters. Elimination half-lives (t1/2) were calculated by linear regression of logarithmically transformed plasma concentration data for each period between doses and following the final dose.
Total areas under the plasma concentration curves (AUC) and under the first moment curves (AUMC) were calculated using linear trapezoidal summation across all concentration time points as well as for intervals between each dose administration and following the final dose. […] Mean absorption times (MAT) were calculated according to the following relation: […]

Q: Which “Normalized % Potentiation” value (nAChR α7 [1]; test conc 0.3 μm) does the source give for `C1=CCC(c2cccnc2)NC1` (racemic) [Anatabine (racemate)] here?
A: −0.94%

Q: What about the “Normalized % Potentiation” value (nAChR α7 [1]; test conc 3 μm) of the same molecule?
A: −0.82%

Q: And the “Normalized % Potentiation” value (nAChR α7 [1]; test conc 10 μm)?
A: −0.51%

Q: And the “Normalized % Potentiation” value (nAChR α7 [1]; test conc 30 μm)?
A: −0.57%

Q: And the “Normalized % Potentiation” value (nAChR α7 [1]; test conc 100 μm)?
A: −0.64%

Q: And the “Normalized % Potentiation” value (nAChR α7 [1]; test conc 300 μm)?
A: −0.74%

Q: What about the “Normalized % Inhibition” value (nAChR α7 [2]; test conc 0.3 μm) of the same molecule?
A: 22.38%

Q: And the “Normalized % Inhibition” value (nAChR α7 [2]; test conc 1 μm)?
A: 22.23%

Q: What about the “Normalized % Inhibition” value (nAChR α7 [2]; test conc 3 μm) of the same molecule?
A: 45.19%

Q: What about the “Normalized % Inhibition” value (nAChR α7 [2]; test conc 10 μm) of the same molecule?
A: 33.42%

Q: What about the “Normalized % Inhibition” value (nAChR α7 [2]; test conc 30 μm) of the same molecule?
A: 22.88%

Q: And the “Normalized % Inhibition” value (nAChR α7 [2]; test conc 100 μm)?
A: 21.99%

Q: And the “Normalized % Inhibition” value (nAChR α7 [2]; test conc 300 μm)?
A: 7.51%

Q: And the “Normalized % Inhibition” value (nAChR α7 [2]; test conc 1000 μm)?
A: 10.84%

Q: And the “Normalized % Activation” value (nAChR α3/β4)?
A: −0.01%

Q: What about the “Normalized % Activation” value (nAChR α4/β2) of the same molecule?
A: 0.28%

Q: And the “Normalized % Activation” value (nAChR α7 [3]; test conc 1 μm)?
A: 0.34%

Q: And the “Normalized % Activation” value (nAChR α7 [3]; test conc 3 μm)?
A: 0.78%

Q: Which “accumulation of IL-1β” value (IL-1β) does the source give for `CC(C)c1c(C(=O)Nc2ccccc2)c(-c2ccccc2)c(-c2ccc(F)cc2)n1CC[C@@H](O)C[C@@H](O)CC(=O)[O-].CC(C)c1c(C(=O)Nc2ccccc2)c(-c2ccccc2)c(-c2ccc(F)cc2)n1CC[C@@H](O)C[C@@H](O)CC(=O)[O-].[Ca+2]` [LIPITOR®, reference compound] here?
A: had no effect at the dose shown

Q: With `C1=CC[C@@H](c2cccnc2)NC1` [S-(−)-anatabine] as the molecule, how does the IC50 (NFκB) read?
A: ~330 µg/mL (≈ 2060 µM)

Q: With anatabine citrate as the molecule, how does the “inflammation of the thyroid” value ([4]; about 600 μg tablets 20 times daily, 30 days) read?
A: reduced to normal levels

Q: And the “voice distortion associated with thyroiditis” value ([4]; after an additional 30 days)?
A: no longer present

Q: For anatabine polacrilex, which adverse signs [5] is on record?
A: no adverse signs were observed

Q: What about the “Cp, min(2)” value ([6]; females, 6.0 mg/kg BW group) of the same molecule?
A: 180 ± 31 ng/mL

Q: And the “Cp, min, first minimum” value ([6]; females, 6.0 mg/kg BW group)?
A: 51.5 ± 26.0 ng/mL

Q: And the “t1/2, terminal” value ([6]; 0.6 mg/kg BW group)?
A: 1.79 ± 0.64 h

Q: What about the “AUC0→∞” value ([6]; 0.6 mg/kg BW p.o. in three divided doses) of the same molecule?
A: 285 ± 77 ng·h/mL

Q: What about the “t1/2, terminal” value ([6]; 6.0 mg/kg BW group) of the same molecule?
A: 4.53 ± 1.77 h

Q: And the “AUC0→∞” value ([6]; 6.0 mg/kg BW p.o. in three divided doses)?
A: 3496 ± 559 ng·h/mL
